# Measurements reported in patent publication US8507470B2, “Substituted arylamide oxazepinopyrimidone derivatives” (Sanofi, priority 2008, dated 2013).
# Where a name gives a salt, the structure may show the parent alone.
# Assays:
# GSK3β = GSK3β (Homo sapiens, UniProt P49841); test: Inhibitory activity against GSK3β (33P-ATP phosphorylation of prephosphorylated GS1 peptide); type: biochemical; conditions: protocol 4: commercial GSK3beta (Millipore), 7.5 μM GS1 peptide, 10 μM ATP, 90 minutes at room temperature
# Sequence of GSK3β (P49841 whole entry): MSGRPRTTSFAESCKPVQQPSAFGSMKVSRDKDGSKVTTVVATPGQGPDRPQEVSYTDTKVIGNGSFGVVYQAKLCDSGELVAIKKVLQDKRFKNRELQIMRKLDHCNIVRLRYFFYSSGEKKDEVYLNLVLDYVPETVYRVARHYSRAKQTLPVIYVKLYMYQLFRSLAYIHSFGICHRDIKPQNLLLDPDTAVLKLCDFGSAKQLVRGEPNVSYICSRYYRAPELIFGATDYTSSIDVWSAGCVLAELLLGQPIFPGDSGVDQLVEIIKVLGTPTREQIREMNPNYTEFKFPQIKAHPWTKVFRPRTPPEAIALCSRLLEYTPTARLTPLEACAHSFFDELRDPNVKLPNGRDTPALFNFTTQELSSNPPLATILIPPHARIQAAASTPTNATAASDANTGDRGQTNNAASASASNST
# Description: Test Example: Inhibitory Activity of the Medicament of the Present Invention against GSK3β: Four different protocols can be used. In a first protocol: 7.5 μM of prephosphorylated GS1 peptide and 10 μM ATP (containing 300,000 cpm of ^33P-ATP) were incubated in 25 mM Tris-HCl, pH 7.5, 0.6 mM DTT, 6 mM MgCl2, 0.6 mM EGTA, 0.05 mg/ml BSA buffer for 1 hour at room temperature in the presence of GSK3beta (total reaction volume: 100 microliters). In a second protocol: 4.1 μM of prephosphorylated GS1 peptide and 42 μM ATP (containing 260,000 cpm ^33P-ATP) were incubated in 80 mM Mes-NaOH, pH 6.5, 1 mM Mg acetate, 0.5 mM EGTA, 5 mM 2-mercaptoethanol, 0.02% Tween 20, 10% glycerol buffer for 2 hours at room temperature in the presence of GSK3beta. In a third protocol: 7.5 μM of prephosphorylated GS1 peptide and 10 μM ATP (containing 300,000 cpm of ^33P-ATP) were incubated in 50 mM Hepes, pH 7.2, 1 mM DTT, 1 mM MgCl2, 1 mM EGTA, 0.01% Tween 20 buffer for one hour at room temperature in the presence of GSK3beta (total reaction volume: 100 microliters). In a fourth protocol: 7.5 μM of prephosphorylated GS1 peptide and 10 μM ATP (containing 300,000 cpm of ^33P-ATP) were incubated in 50 mM Hepes, pH 7.2, 1 mM DTT, 1 mM MgCl2, 1 mM EGTA, 0.01% Tween 20 buffer for 90 minutes at room temperature in the presence of commercial GSK3beta (Millipore) (total reaction volume: 100 microliters). Inhibitors were solubilised in DMSO (final solvent concentration in the reaction medium, 1%). The reaction was stopped with 100 microliters of a solution made of 25 g polyphosphoric acid (85% P2O5), 126 ml 85% H3PO4, H2O to 500 ml and then diluted to 1:100 before use. An aliquot of the reaction mixture was then transferred to Whatman P81 cation exchange filters and rinsed with the solution described above. Incorporated ^33P radioactivity was determined by liquid scintillation spectrometry. The phosphorylated GS-1 peptide had the following sequence: NH2-[…](P)EDEE-COOH.(Woodgett, J. R. (1989) Analytical Biochemistry 180, 237-241.
melting point,IC50 (GSK3β),Compound
235 to 237 °C,2 nM,"COc1ccc(Cl)cc1C(=O)NC1COCCn2c1nc(-c1ccncc1)cc2=O (racemic) [compound No. 19, (+/−)-5-Chloro-2-methoxy-N-(4-oxo-2-pyridin-4-yl-5,6,8,9-tetrahydro-4H-7-oxa-1,4a-diaza-benzocyclohepten-9-yl)-benzamide]"
257 to 259 °C,0.5 nM,"COc1ccc(S(N)(=O)=O)cc1C(=O)NC1COCCn2c1nc(-c1ccncn1)cc2=O (racemic) [compound No. 7, (+/−)-2-Methoxy-N-(4-oxo-2-pyrimidin-4-yl-5,6,8,9-tetrahydro-4H-7-oxa-1,4a-diaza-benzocyclohepten-9-yl)-5-sulfamoyl-benzamide]"
254 to 256 °C,,"COc1ccccc1CNC1COCCn2c1nc(-c1ccncn1)cc2=O (racemic) (as salt: HCl) [compound No. 21, (+/−)-9-(2-Methoxy-benzylamino)-2-pyrimidin-4-yl-5,6,8,9-tetrahydro-7-oxa-1,4a-diaza-benzocyclohepten-4-one]"
202 to 204 °C,10 nM,"CC(=O)Oc1ccccc1C(=O)NC1COCCn2c1nc(-c1ccncn1)cc2=O (racemic) [compound No. 14, (+/−)-Acetic acid 2-(4-oxo-2-pyrimidin-4-yl-5,6,8,9-tetrahydro-4H-7-oxa-1,4a-diaza-benzocyclohepten-9-ylcarbamoyl)-phenyl ester]"
,41 nM,"COc1ccccc1CNC1COCCn2c1nc(-c1ccncn1)cc2=O (racemic) [compound No. 21, (+/−)-9-(2-Methoxy-benzylamino)-2-pyrimidin-4-yl-5,6,8,9-tetrahydro-7-oxa-1,4a-diaza-benzocyclohepten-4-one]"
